# Source: patent US11247972B2, “Compositions and methods for treating toxoplasmosis, cryptosporidiosis, and other apicomplexan protozoan related diseases” (University of Washington through its Center for …, priority 2010, dated 2022)
# Entries after “also recorded” stand apart in the source; their conditions may differ.
# Columns and labels:
# [1] = biological target: TgCDPK1 (Toxoplasma gondii, UniProt Q9BJF5); format: biochemical
# [2] = biological target: CpCDPK1 (Cryptosporidium parvum (strain Iowa II), UniProt A3FQ16); format: biochemical
# [3] = test system: C. parvum; assay: C. parvum infection of HCT-8 cells (rRNA reverse transcriptase real time PCR); format: cell-based, Cryptosporidium parvum; conditions: inhibitor at time of infection and 1 hour after infection
# [4] = biological target: SRC (Homo sapiens (Human), UniProt P12931); assay: Tyrosine kinase SRC counter-screen; format: biochemical
# [5] = biological target: PfCDPK1 (Plasmodium falciparum (isolate 3D7), UniProt P62344); assay: biochemical; conditions: read-out: PfCDPK1 (% inhibition @ 3 uM)
# [6] = biological target: PfCDPK4 (Plasmodium falciparum (isolate 3D7), UniProt Q8IBS5); assay: biochemical; conditions: read-out: PfCDPK4 (% inhibition @ 3 uM)
# [7] = biological target: ABL (Homo sapiens (Human), UniProt P00519)
# [8] = test system: human promyelocytic leukemia (HL-60); assay: Growth inhibition / toxicity in human cell line HL-60; conditions: HL60, 10 μM
# [9] = test system: human lymphocyte (CRL8155); assay: Growth inhibition / toxicity in human cell line CRL8155; conditions: CRL8155, 10 μM
# [10] = test system: P. berghei expressing PfCDPK4-2x-myc; set-up: species or system Plasmodium berghei; conditions: in vivo
# [11] = test system: P. berghei; set-up: species or system Plasmodium berghei; conditions: in vivo
# [12] = test system: P. falciparum; assay: P. falciparum NF54 gametocyte exflagellation with compound in blood; format: cell-based, Plasmodium falciparum
# [13] = test system: C. parvum; assay: Immunosuppressed (SCID-beige) mouse C. parvum model, stool qRT-PCR; format: in vivo, Cryptosporidium parvum; conditions: oral gavage once a day, days 3-7 and 10-14; 29 and 150 50 mg/kg/day, Paromomycin 2 g/kg/day
# Protocol: Shown are mean of the parasite numbers detected in 25 mg of stool from each mouse, by qRT-PCR.
# [14] = test system: glioma derived (SF539); assay: Growth inhibition / toxicity in human cell line SF539
SMILES,inhibition of CpCDPK1 (in words) [2],inhibition at 3 µM [5],inhibition at 3 µM [6],further results
"CC(C)(C)n1nc(-c2ccc3ccccc3c2)c2c(N)ncnc21 [Compound 2, 1-tert-butyl-3-(naphthalen-2-yl)-1H-pyrazolo[3,4-d]pyrimidin-4-amine]",most potent inhibitor,–,–,inhibition of TgCDPK1 (in words) [1]: most potent inhibitor; C. parvum parasite levels / proliferation in HCT-8 cells [3]: most potent effect
"Nc1ncnc2c1c(Cc1cccc3ccccc13)nn2CC1CCNCC1 [Compound 5h, 3-(naphthalen-1-ylmethyl)-1-(piperidin-4-ylmethyl)-1H-pyrazolo[3,4-d]pyrimidin-4-amine]",–,66%,95%,inhibition of SRC (in words) [4]: reduced potency; inhibition of ABL (in words) [7]: reduced potency
"CC(C)n1nc(-c2ccc(Cl)c(Cl)c2)c2c(N)ncnc21 [Compound 7c, 3-(3,4-dichlorophenyl)-1-isopropyl-1H-pyrazolo[3,4-d]pyrimidin-4-amine]",potent against both enzymes,93%,97%,–
"Cc1cc(-c2nn(C(C)C)c3ncnc(N)c23)ccc1F [Compound 7i, 3-(4-fluoro-3-methylphenyl)-1-isopropyl-1H-pyrazolo[3,4-d]pyrimidin-4-amine]",potent against both enzymes,79%,79%,–
"COc1ccc(-c2nn(C(C)C)c3ncnc(N)c23)cc1OC [Compound 7k, 3-(3,4-dimethoxyphenyl)-1-isopropyl-1H-pyrazolo[3,4-d]pyrimidin-4-amine]",potent against both enzymes,93%,43%,–
"COc1ccc(-c2nn(C(C)C)c3ncnc(N)c23)cc1C [Compound 7m, 1-isopropyl-3-(4-methoxy-3-methylphenyl)-1H-pyrazolo[3,4-d]pyrimidin-4-amine]",potent against both enzymes,77%,85%,–
"CC(C)n1nc(-c2cnc3ccccc3c2)c2c(N)ncnc21 [Compound 7t, 1-isopropyl-3-(quinolin-3-yl)-1H-pyrazolo[3,4-d]pyrimidin-4-amine]",potent inhibitors of both enzymes,65%,83%,inhibition of TgCDPK1 (in words) [1]: potent inhibitors of both enzymes
"Cc1cccc2[nH]c(-c3nn(C(C)C)c4ncnc(N)c34)cc12 [Compound 25, 1-isopropyl-3-(4-methyl-1H-indol-2-yl)-1H-pyrazolo[3,4-d]pyrimidin-4-amine]",–,–,92%,"Cell Toxicity HL60, % at 10 μM [8]: 47% toxicity at; Cell Toxicity CRL8155, % at 10 μM [9]: 38% toxicity at"
"CC(C)n1nc(-c2cc3c(Cl)cccc3[nH]2)c2c(N)ncnc21 [Compound 26, 3-(4-chloro-1H-indol-2-yl)-1-isopropyl-1H-pyrazolo[3,4-d]pyrimidin-4-amine]",–,–,93%,"Cell Toxicity HL60, % at 10 μM [8]: 45% toxicity at; Cell Toxicity CRL8155, % at 10 μM [9]: 38% toxicity at"
"CCOc1ccc2cc(-c3nn(CC4CCNCC4)c4ncnc(N)c34)ccc2c1 [Compound 29, 3-(6-ethoxynaphthalen-2-yl)-1-(piperidin-4-ylmethyl)-1H-pyrazolo[3,4-d]pyrimidin-4-amine]",–,97%,–,duration of complete suppression of male gametocyte differentiation to exflagellating units [10]: 14 h; exflagellation in blood samples from treated mice [10]: some exflagellation was observed; formation of oocysts in A. stephensi [11]: completely blocked; P. falciparum exflagellation ([12]; 1 and 3 μM): complete suppression; also recorded: suppressed completely; also recorded: prevented the exflagellation of microgametes; parasites in stool at the end of treatment [13]: not detected; rebound of parasite burden after treatment [13]: slowly
"Nc1ncnc2c1c(-c1ccc3cc(OCc4ccccc4)ccc3c1)nn2CC1CCNCC1 [Compound 34, 3-(6-(benzyloxy)naphthalen-2-yl)-1-(piperidin-4-ylmethyl)-1H-pyrazolo[3,4-d]pyrimidin-4-amine]",–,–,97%,Cell Toxicity LD50 SF539 [14]: 6 µM
"CCOc1ccc2cc(-c3nn(CC4CCN(C)CC4)c4ncnc(N)c34)ccc2c1 [Compound 150, 3-(6-ethoxynaphthalen-2-yl)-1-((1-methylpiperidin-4-yl)methyl)-1H-pyrazolo[3,4-d]pyrimidin-4-amine]",–,–,–,"EC50 ([12]; Plasmodium falciparum, read-out: Parasite Proliferation Assay EC50 P. falciparum Exflaggelation): 50 nM; parasites in stool at the end of treatment [13]: not detected; rebound of parasite burden after treatment [13]: not"
"CC(C)(C)n1nc(-c2ccc3ccccc3c2)c2c(N)ncnc21 [NA-PP2, reference compound]",–,–,–,formation of oocysts in A. stephensi [11]: hundreds of oocysts per mosquito
"NC[C@@H]1O[C@H](O[C@H]2[C@@H](O)[C@H](O[C@@H]3[C@@H](O)[C@H](N)C[C@H](N)[C@H]3O[C@H]3O[C@H](CO)[C@@H](O)[C@H](O)[C@H]3N)O[C@@H]2CO)[C@H](N)[C@@H](O)[C@@H]1O [Paromomycin, reference compound]",–,–,–,parasites in stool at the end of treatment [13]: not detected; rebound of parasite burden after treatment [13]: quickly rebounded
